Measured values taken from ChEMBL document CHEMBL1129848, “Synthesis and evaluation of imidazolidinones as nonpeptide HIV-protease inhibitors” (Bioorg Med Chem Lett, 1997).

Legend:
[1] = target: T1, Human immunodeficiency virus type 1 protease (Human immunodeficiency virus 1, UniProt Q72874); test: Inhibition of HIV-protease
[2] = target: T1, Human immunodeficiency virus type 1 protease; test: Compound was tested for the inhibitory activity against HIV-protease

Compound | Ki [1] [nM] | Ki [2] [nM]
O=C1N(Cc2cccc(CO)c2)[C@H]([C@@H](O)Cc2ccccc2)[C@@H](CCc2ccccc2)N1Cc1cccc(CO)c1 | 23 | –
O=C1N(CC2CC2)[C@H]([C@@H](F)Cc2ccccc2)[C@@H]([C@@H](F)Cc2ccccc2)N1CC1CC1 | 980 | –
O=C1N(Cc2cccc(O)c2)[C@H]([C@@H](F)Cc2ccccc2)[C@@H]([C@@H](F)Cc2ccccc2)N1Cc1cccc(O)c1 | 560 | –
O=C1N(Cc2cccc(CO)c2)[C@H](CCc2ccccc2)C[C@@H](Cc2ccccc2)N1Cc1cccc(CO)c1 | 99 | –
N=C(NO)c1cccc(CN2C(=O)N(Cc3cccc(C(=N)NO)c3)[C@H](CCc3ccccc3)[C@H]2CCc2ccccc2)c1 | 17 | –
COC(=O)c1cccc(CN2C(=O)N(Cc3cccc(C(=O)OC)c3)[C@H](CCc3ccccc3)[C@H]2CCc2ccccc2)c1 | 470 | –
COC(=O)c1cccc(CN2C(=O)N(Cc3cccc(C(=O)OC)c3)[C@H](CCc3ccccc3)[C@H]2[C@@H](Br)Cc2ccccc2)c1 | 920 | –
C=CCN1C(=O)N(CC=C)[C@H]([C@@H](F)Cc2ccccc2)[C@H]1[C@@H](F)Cc1ccccc1 | 2500 | –
COC(=O)c1cccc(CN2C(=O)N(Cc3cccc(C(=O)OC)c3)[C@H](CCc3ccccc3)[C@H]2[C@@H](O)Cc2ccccc2)c1 | 100 | –
O=C1N(Cc2cccc(CO)c2)[C@H](Cc2ccccc2)[C@@H](Cc2ccccc2)N1Cc1cccc(CO)c1 | – | 15500
O=C1N(Cc2ccc3ccccc3c2)[C@H]([C@@H](F)Cc2ccccc2)[C@@H]([C@@H](F)Cc2ccccc2)N1Cc1ccc2ccccc2c1 | 1400 | –
O=C1N(Cc2cccc(CO)c2)[C@H](Cc2ccccc2)CC[C@@H](Cc2ccccc2)N1Cc1cccc(CO)c1 | 170 | –
O=C(Oc1cccc(CN2C(=O)N(Cc3cccc(OC(=O)c4ccccc4)c3)[C@H]([C@@H](F)Cc3ccccc3)[C@H]2[C@@H](F)Cc2ccccc2)c1)c1ccccc1 | 425 | –
O=C1N(Cc2cccc(CO)c2)[C@H](CCc2ccccc2)[C@@H](CCc2ccccc2)N1Cc1cccc(CO)c1 | 55 | –
